Source: BindingDB's records for doi:10.3109/14756366.2012.670806 (Jeju National University, 2013)

These compounds were tested against T1, Polyphenol oxidase 1 (White button mushroom, UniProt Q00024) (assay: Tyrosinase Inhibition Assay). Details: pH 6.8; 37 °C.
T1 sequence (Q00024 whole entry): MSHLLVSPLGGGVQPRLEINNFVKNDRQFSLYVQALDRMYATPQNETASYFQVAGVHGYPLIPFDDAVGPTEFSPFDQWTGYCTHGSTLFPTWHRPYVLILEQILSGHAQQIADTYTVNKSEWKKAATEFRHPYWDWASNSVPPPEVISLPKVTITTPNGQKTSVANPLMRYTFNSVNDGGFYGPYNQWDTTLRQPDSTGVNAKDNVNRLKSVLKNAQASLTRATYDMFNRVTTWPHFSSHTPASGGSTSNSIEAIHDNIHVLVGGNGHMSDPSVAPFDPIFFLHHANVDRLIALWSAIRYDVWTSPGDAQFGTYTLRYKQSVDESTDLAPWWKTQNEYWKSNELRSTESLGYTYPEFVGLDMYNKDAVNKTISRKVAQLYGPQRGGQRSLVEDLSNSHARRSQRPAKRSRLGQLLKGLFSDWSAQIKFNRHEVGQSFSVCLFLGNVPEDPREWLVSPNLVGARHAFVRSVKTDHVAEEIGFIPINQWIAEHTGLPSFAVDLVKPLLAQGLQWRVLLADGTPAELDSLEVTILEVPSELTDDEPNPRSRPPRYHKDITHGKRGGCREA
Method: Briefly, mushroom tyrosinase (1250 units/mL) and 2 mM L-tyrosine (0.07 mL) were added to a solution of phosphate buffer (0.1 M, pH 6.8, 0.09 mL) containing the test sample. The test mixture (0.2 mL) was incubated for 10 min at 37°C and the absorption due to the formation of dopachrome was monitored at 475 nm. The same mixture except for the plant extract was used as a control. Arbutin (hydroquinone-O-β-glucopyranoside) was used as a positive control. Each treatment was replicated three times.
Compound OC[C@H]1O[C@@H](Oc2ccc(O)cc2)[C@H](O)[C@@H](O)[C@@H]1O [4-hydroxyphenyl beta-D-glucopyranoside] has an IC50 of 320 µM.
CC1OC(Oc2c(-c3ccc(O)cc3)oc3cc(O)cc(O)c3c2=O)C(OC(=O)/C=C/c2ccc(O)cc2)C(OC(=O)/C=C/c2ccc(O)cc2)C1O (stereo not drawn) [Neolitsea aciculata extract, 5] showed an IC50 of 67 µM.
With CC1OC(Oc2c(-c3ccc(O)cc3)oc3cc(O)cc(O)c3c2=O)C(OC(=O)/C=C/c2ccc(O)cc2)C(O)C1O (stereo not drawn) [Neolitsea aciculata extract, 6] the IC50 was 80 µM.
